Values quoted from earlier work in patent US20060018956A1, “Dermal application system for aminolevulinic acid-derivatives” (priority 2002, published 2006).

Conditions: fresh ALA solution, approximate physiological value of 8, after just two weeks

undecomposed active substance: approx. 10%
SMILES: NCC(=O)CCC(=O)O [ALA, 5-aminolaevulinic acid]
